Consider 7 compounds from PubChem BioAssay (NCI).

Test systems include U251 CNS; DMS 114 small cell lung; RXF 393 renal; CCRF-CEM leukemia; SK-MEL-2 melanoma; HT29 colon; DMS 273 small cell lung; OVCAR-3 ovarian; MDA-MB-435; SF-295 CNS.
What all share (experiment): NCI-60 cell line screen, 48 h

Several values for one entry are separate records, joined by “and”; a condition that tells them apart may be missing. Identical values can stand only once.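 Cells were grown in 96-well plates and exposed to each compound for 48 hours at five concentrations; endpoints were interpolated linearly between bracketing concentrations, or set to the highest concentration if not reached. At the GI50, growth is halved. TGI is the concentration that stops growth completely.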

As for `CN1C(c2ccccc2)CC(=NO)CC1c1ccccc1` (stereo not given), the TGI with U251 CNS, in the test with DMS 114 small cell lung, in the test with RXF 393 renal, in the test on CCRF-CEM leukemia, in the test with SK-MEL-2 melanoma and with HT29 colon was more than 100 µM in each case. The TGI in the test on DMS 273 small cell lung was more than 100 µM; with OVCAR-3 ovarian, > 100 µM and 77.3 µM; in the test with SF-295 CNS, more than 100 µM. In addition, the GI50 is 87.9 µM in the test on RXF 393 renal; 29.2 µM in the test with CCRF-CEM leukemia; 34.8 µM with HT29 colon; 24.9 µM in the test with OVCAR-3 ovarian; 61 µM in the test with MDA-MB-435; 44.5 µM in the test on SF-295 CNS.

In the case of `Cn1cnc(SC2=CC(=O)C=C3S[C@H]4C[C@@]23c2c(c(O)c3c5c2=NCCC=5C=N3)N4)c1CC(N)C(=O)O` (stereo not given in full), the GI50 is 18.1 µM in the test with U251 CNS; 10.6 µM in the test with RXF 393 renal; 3.76 µM in the test with CCRF-CEM leukemia; 9.62 µM with SK-MEL-2 melanoma; 2.18 µM in the test on HT29 colon; 7.33 µM in the test with DMS 273 small cell lung. Further, the figures for the GI50 in the test on OVCAR-3 ovarian, with MDA-MB-435 and in the test on SF-295 CNS were 3.24 µM, 1.88 µM and 15.9 µM, respectively. Besides, the TGI with U251 CNS is 32 µM; in the test with DMS 114 small cell lung, 4.31 µM; in the test on RXF 393 renal, 23.8 µM; in the test on CCRF-CEM leukemia it was 44.1 µM; with SK-MEL-2 melanoma it was 24.7 µM; in the test with HT29 colon it was 11.7 µM. Also, the TGI with DMS 273 small cell lung amounted to 20.3 µM; in the test on OVCAR-3 ovarian, 10.7 µM; with MDA-MB-435, 3.44 µM; in the test on SF-295 CNS it was 29.6 µM.

Turning to `COc1ccc(/C=C/c2cc(OC)c(OC)c(OC)c2)cc1OC`, the TGI in the test on U251 CNS, with DMS 114 small cell lung, in the test on RXF 393 renal, with CCRF-CEM leukemia, with SK-MEL-2 melanoma and in the test with HT29 colon was more than 100 µM throughout. Further, the TGI in the test with DMS 273 small cell lung, with OVCAR-3 ovarian and in the test with SF-295 CNS was more than 100 µM throughout.

As to `O=[N+]([O-])c1cc(I)cc(/C=N/NS(=O)(=O)c2ccc(F)cc2)c1O`, the TGI in the test on U251 CNS was 59.9 µM; in the test with DMS 114 small cell lung it was 52.2 µM; with RXF 393 renal it was 49.9 µM; in the test with CCRF-CEM leukemia it was 53.9 µM; in the test on SK-MEL-2 melanoma it was 35.7 µM; in the test with HT29 colon it was 46.5 µM. In addition, the TGI was 48.8 µM with DMS 273 small cell lung, 38.6 µM in the test on OVCAR-3 ovarian and 98.2 µM in the test on SF-295 CNS.

With `Cc1ccc(NC(=O)CCc2nnc3s/c(=C\C=C\c4ccccc4)c(=O)n23)cc1`, the TGI with U251 CNS is more than 100 µM; in the test on DMS 114 small cell lung, more than 100 µM; with RXF 393 renal it was more than 100 µM; in the test on CCRF-CEM leukemia it was 74.3 µM; with SK-MEL-2 melanoma it was more than 91.9 µM; in the test with HT29 colon, more than 100 µM. The TGI in the test on DMS 273 small cell lung was more than 100 µM; in the test with OVCAR-3 ovarian, more than 87.2 µM; in the test with MDA-MB-435 it was more than 100 µM; with SF-295 CNS, more than 100 µM.

Regarding `Cn1c(=O)nc2n(-c3ccc(F)c(F)c3)c3ccccc3nc-2c1=O`, the TGI in the test with U251 CNS stood at 36.2 µM; with DMS 114 small cell lung, 18 µM; in the test on RXF 393 renal, 72.5 µM; in the test with CCRF-CEM leukemia, 42.2 µM; with SK-MEL-2 melanoma it was 55.3 µM; in the test with HT29 colon, 16 µM. The TGI stood at 36.9 µM in the test on DMS 273 small cell lung, 10.3 µM with OVCAR-3 ovarian and 32.4 µM with SF-295 CNS.

In the case of `CC(=O)N(N=O)c1ccc(N(N=O)C(C)=O)cc1`, the TGI in the test with U251 CNS, in the test with DMS 114 small cell lung, with RXF 393 renal, with CCRF-CEM leukemia, with SK-MEL-2 melanoma and in the test on HT29 colon was more than 100 µM in each case. The TGI with DMS 273 small cell lung, in the test on OVCAR-3 ovarian and in the test on SF-295 CNS was more than 100 µM in each case.
